Paper PMC12526004, “Tiliroside Suppresses Uric Acid Production in Hepatocytes and Attenuates Purine-Induced Hyperuricemia in Male ICR Mice” (Molecules, 2025)

Legend:
Experiment in all cases: Renal mRNA expression, real-time quantitative PCR
Assay type in all cases: in vivo, male ICR mice
Settings in all cases: 300 mg/kg oral, three days
GLUT9 = tested on: GLUT9
Experimental: (§1) The antihyperuricemic effect of tiliroside was evaluated using mice with purine-induced hyperuricemia, following a previously described procedure. […] The test compounds were suspended in 0.2 mL of 0.5% CMC-Na based on the average body weight of each group. The actual volume administered was adjusted according to the individual body weight of each mouse. Prior to each administration, the mice were fasted for four hours. The negative and hyperuricemic control groups received the vehicle (0.5% CMC-Na) alone. […] GMP and IMP were dissolved in 0.2 mL of PBS (–) based on the average body weight of all mice. The injection volume was similarly adjusted according to each mouse’s body weight. These injections were performed one hour after the final oral administration of the test compounds or vehicle. The negative control group received PBS (–) alone. […] The liver and kidneys were then excised. Blood samples were centrifuged at 5000× g for 10 min at 4 °C to obtain plasma, which was stored at −80 °C until analysis. To assess renal gene expression, four mice per group were selected based on plasma UA levels approximating the group mean. Total RNA was extracted from kidney tissues of the negative control, hyperuricemic model, allopurinol-treated, and high-dose tiliroside-treated groups using the Trizol-chloroform method (Thermo Fisher Scientific). Reverse transcription was performed with 1 µg of RNA using iScript reverse transcriptase (Bio-Rad, Hercules, CA, USA). Quantitative PCR was conducted using the MyiQ2 real-time PCR system (Bio-Rad), with GAPDH as the reference gene.

ABCG2 = tested on: ABCG2
Experimental: as §1

ABCC4 = tested on: ABCC4
Experimental: as §1

O=C(/C=C/c1ccc(O)cc1)OC[C@H]1O[C@@H](Oc2c(-c3ccc(O)cc3)oc3cc(O)cc(O)c3c2=O)[C@H](O)[C@@H](O)[C@@H]1O [Tiliroside, kaempferol-3-O-(6′′-p-coumaroyl)-glucoside]
did not affect: renal GLUT9 mRNA expression (GLUT9) | renal ABCG2 mRNA expression (ABCG2) | renal ABCC4 mRNA expression (ABCC4)
